Test results as given in PMC6832266, “Natural Sesquiterpene Lactones of the 4,15-iso-Atriplicolide Type are Inhibitors of Trypanothione Reductase” (Molecules, 2019).

How the values were obtained:
Format in all cases: biochemical
[1] = molecular target: T1, trypanothione reductase (TbTR) (Trypanosoma brucei, UniProt P39051); experiment: NADPH-consumption TR assay on recombinant enzyme, % inhibition at […] after […] min preincubation; dilution assay; settings: read-out: TbTR / % Inhibition at c = 100 μM Preincubation Time (min)
T1 construct: gene TPR

[2] = molecular target: T2, trypanothione reductase (TcTR) (Trypanosoma cruzi, UniProt P28593); experiment: NADPH-consumption TR assay on recombinant enzyme, % inhibition at […] after […] min preincubation; settings: read-out: TcTR / % Inhibition at c = 100 μM Preincubation Time (min)
T2 construct: gene TPR

[3] = molecular target: T1, trypanothione reductase (TbTR); experiment: NADPH-consumption TR assay on recombinant enzyme; Lineweaver-Burk kinetics; dilution assay (irreversible, time-dependent)

T1 sequence (P39051 whole entry): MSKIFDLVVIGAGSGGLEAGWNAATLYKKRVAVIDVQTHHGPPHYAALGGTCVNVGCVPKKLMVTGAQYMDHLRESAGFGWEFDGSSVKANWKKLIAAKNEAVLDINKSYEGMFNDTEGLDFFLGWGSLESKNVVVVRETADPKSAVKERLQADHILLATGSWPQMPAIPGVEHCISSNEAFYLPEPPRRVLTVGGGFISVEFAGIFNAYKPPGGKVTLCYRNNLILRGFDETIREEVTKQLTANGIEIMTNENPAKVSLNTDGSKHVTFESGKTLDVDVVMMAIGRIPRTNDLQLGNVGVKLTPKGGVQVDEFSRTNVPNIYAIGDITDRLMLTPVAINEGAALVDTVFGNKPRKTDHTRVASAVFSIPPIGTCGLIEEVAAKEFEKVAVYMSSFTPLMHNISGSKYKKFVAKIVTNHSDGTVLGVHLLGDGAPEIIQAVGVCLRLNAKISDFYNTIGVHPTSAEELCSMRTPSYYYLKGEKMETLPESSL
T2 sequence (P28593 whole entry): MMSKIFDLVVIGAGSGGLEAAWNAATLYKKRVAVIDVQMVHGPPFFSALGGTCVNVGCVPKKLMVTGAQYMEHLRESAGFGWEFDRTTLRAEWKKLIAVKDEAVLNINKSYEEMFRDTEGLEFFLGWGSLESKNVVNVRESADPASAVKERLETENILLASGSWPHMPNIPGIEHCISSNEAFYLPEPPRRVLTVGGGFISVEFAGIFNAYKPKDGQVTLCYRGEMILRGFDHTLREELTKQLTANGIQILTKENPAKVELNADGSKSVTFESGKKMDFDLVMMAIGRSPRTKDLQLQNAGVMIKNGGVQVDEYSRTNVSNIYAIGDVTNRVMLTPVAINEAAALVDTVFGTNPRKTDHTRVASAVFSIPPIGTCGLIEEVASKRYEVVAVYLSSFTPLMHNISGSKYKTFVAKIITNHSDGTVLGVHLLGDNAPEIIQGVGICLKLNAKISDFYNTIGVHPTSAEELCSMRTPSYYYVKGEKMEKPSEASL

## C=C(C)C(=O)O[C@@H]1C[C@@]2(C)OC(=CC2=O)C(=C)C[C@H]2OC(=O)C(=C)[C@H]12 [compound 2, 4,15-iso-atriplicolide methacrylate]
[1]
  inhibition at 100 µM: 84%
[2]
  inhibition at 100 µM: 41 ± 1%

## C=C1C[C@H]2OC(=O)C(=C)[C@@H]2[C@H](OC(=O)/C(C)=C/C)C[C@@]2(C)OC1=CC2=O [compound 1, 4,15-iso-Atriplicolide tiglate]
[3]
  Ki: 128 ± 8 µM
[2]
  inhibition at 100 µM: 89 ± 1%

## C=C1C[C@H]2OC(=O)C(=C)[C@@H]2[C@H](OC(=O)C(C)C)C[C@@]2(C)OC1=CC2=O [compound 3, 4,15-iso-atriplicolide isobutyrate]
[1]
  inhibition at 100 µM: 79%
[2]
  inhibition at 100 µM: 80%
